Data taken from publication PMC12778052 (Science Advances, 2026).

Assays:
[1] = in vivo; set-up: species or system NSG mice; settings: mouse; for tissue uptake at 2 min / tissue uptake at 0.25 h / tissue uptake at 1 h / tissue uptake at 2 h / tissue uptake at 3 h / tissue to tissue ratio at 2 min / tissue to tissue ratio at 0.25 h / tissue to tissue ratio at 1 h / tissue to tissue ratio at 2 h / tissue to tissue ratio at 3 h: NSG, iv, 1.85 MBq, total radioactivity
Description: Mice were injected with cancer cells subcutaneously in 100 μl of PBS (top right flank) for all tumor models. The following cell numbers were used: HT1376 (4 million), UC9 (3 million), UC14 (3 million), RT112 (1.5 million), T24(3 million), and SCaBER (4 million). Mice with tumor volumes of 100 to 200 mm^3 were used for all experiments. A minimum of four mice were used for all biodistribution studies. A minimum of seven mice were used in PD experiment to account for greater variability. To validate imaging studies, ex vivo biodistribution studies were conducted in mice with tumors of 100 to 200 mm^3 in size. […] In all other studies, a 60-min time point was chosen. Selected tissues (blood, skin, muscle, bone, salivary glands, tumor, lungs, heart, liver, pancreas, spleen, kidneys, bladder, and testicles) were collected, weighed, and counted, and their %IA/g values were calculated as described previously ([33]). For EV PD studies, fewer organs were harvested to accommodate a higher number of mice.

[2] = system: UC14 cells; test: In vitro binding of [^68Ga]AJ647 to UC14 cells; assay type: cell-based; settings: 1 × 10^6 cells, ~1 μCi, 30 min, 4°C, means ± SD, n = 4
Description: In vitro binding of [^68Ga]AJ647 to T24, SCaBER, RT112, UC9, UC14, and HT1376 cells was determined by incubating 1 × 10^6 cells with ~1 μCi of [^68Ga]AJ647 for 30 min at 4°C. After incubation, cells were washed three times with ice-cold PBS containing 0.1% Tween 20 and counted on an automated gamma counter. All cell radioactivity uptake studies were performed in quadruplicate for each cell line and repeated three times.

Work on CSCC[C@@H]1NC(=O)[C@@H]2CSCCC(=O)N3CN(CN(C3)C(=O)CCSC[C@H](NC(=O)CCOCCOCCOCCOCCOCCOCCOCCOCCOCCOCCOCCOCCNC(=O)CN3CCN(CC(=O)O)CCN(CC(=O)O)CC3)C(=O)N3CCC[C@H]3C(=O)N[C@@H](Cc3cccc4ccccc34)C(=O)N[C@@H](CC(=O)O)C(=O)N2)C(=O)CCSC[C@@H](C(N)=O)NC(=O)[C@H](Cc2c[nH]c3ccccc23)NC(=O)[C@@H]2C[C@@H](O)CN2C(=O)[C@@H]2CCCN2C(=O)[C@H]([C@@H](C)O)NC(=O)[C@H](CO)NC(=O)[C@H](Cc2c[nH]c3ccccc23)NC(=O)[C@@H](CC(=O)O)NC(=O)[C@H](CCCCNC(=N)N)NC1=O [[^68Ga]AJ647, metal not drawn] yielded a tissue uptake at 2 min ([1]; Blood) of 35.8 ± 3.64 %ID/g, a tissue uptake at 0.25 h ([1]; Blood) of 2.94 ± 0.68 %ID/g and a tissue uptake at 1 h ([1]; Blood) of 0.84 ± 0.22 %ID/g. The tissue uptake at 2 h ([1]; Blood) was 0.28 ± 0.06 %ID/g, the tissue uptake at 3 h ([1]; Blood) was 0.32 ± 0.09 %ID/g and the tissue uptake at 2 min ([1]; Femur) was 1.88 ± 0.29 %ID/g. It also gave a tissue uptake at 0.25 h ([1]; Femur) of 1.3 ± 0.05 %ID/g, a tissue uptake at 1 h ([1]; Femur) of 0.57 ± 0.18 %ID/g and a tissue uptake at 2 h ([1]; Femur) of 0.27 ± 0.09 %ID/g. It also gave a tissue uptake at 3 h ([1]; Femur) of 0.34 ± 0.09 %ID/g, a tissue uptake at 2 min ([1]; Heart) of 11.3 ± 0.51 %ID/g and a tissue uptake at 0.25 h ([1]; Heart) of 1.15 ± 0.34 %ID/g. For the same compound, the tissue uptake at 1 h ([1]; Heart) was 0.43 ± 0.07 %ID/g, the tissue uptake at 2 h ([1]; Heart) was 0.19 ± 0.01 %ID/g and the tissue uptake at 3 h ([1]; Heart) was 0.22 ± 0.01 %ID/g. The tissue uptake at 2 min ([1]; Liver) was 6.45 ± 1.39 %ID/g, the tissue uptake at 0.25 h ([1]; Liver) was 1.19 ± 0.3 %ID/g and the tissue uptake at 1 h ([1]; Liver) was 0.45 ± 0.09 %ID/g. It also gave a tissue uptake at 2 h ([1]; Liver) of 0.21 ± 0.07 %ID/g, a tissue uptake at 3 h ([1]; Liver) of 0.23 ± 0.02 %ID/g and a tissue uptake at 2 min ([1]; Lung) of 24.2 ± 7.05 %ID/g. For the same compound, the tissue uptake at 0.25 h ([1]; Lung) was 3.66 ± 0.5 %ID/g, the tissue uptake at 1 h ([1]; Lung) was 1.66 ± 0.25 %ID/g and the tissue uptake at 2 h ([1]; Lung) was 0.81 ± 0.28 %ID/g. For the same compound, the tissue uptake at 3 h ([1]; Lung) was 0.47 ± 0.2 %ID/g, the tissue uptake at 2 min ([1]; Muscle) was 0.96 ± 0.19 %ID/g and the tissue uptake at 0.25 h ([1]; Muscle) was 0.93 ± 0.36 %ID/g. It also gave a tissue uptake at 1 h ([1]; Muscle) of 0.38 ± 0.06 %ID/g, a tissue uptake at 2 h ([1]; Muscle) of 0.2 ± 0.11 %ID/g and a tissue uptake at 3 h ([1]; Muscle) of 0.18 ± 0.05 %ID/g. It also gave a tissue uptake at 2 min ([1]; Salivary glands) of 6.3 ± 1.24 %ID/g, a tissue uptake at 0.25 h ([1]; Salivary glands) of 4.74 ± 0.94 %ID/g and a tissue uptake at 1 h ([1]; Salivary glands) of 1.48 ± 0.18 %ID/g. For the same compound, the tissue uptake at 2 h ([1]; Salivary glands) was 0.67 ± 0.09 %ID/g, the tissue uptake at 3 h ([1]; Salivary glands) was 0.69 ± 0.07 %ID/g and the tissue uptake at 2 min ([1]; Skin) was 1.13 ± 0.16 %ID/g. It also gave a tissue uptake at 0.25 h ([1]; Skin) of 2.74 ± 0.5 %ID/g, a tissue uptake at 1 h ([1]; Skin) of 1.45 ± 0.33 %ID/g and a tissue uptake at 2 h ([1]; Skin) of 0.82 ± 0.22 %ID/g. It also gave a tissue uptake at 3 h ([1]; Skin) of 0.66 ± 0.12 %ID/g, a tissue uptake at 2 min ([1]; Small intestine) of 0.85 ± 0.23 %ID/g and a tissue uptake at 0.25 h ([1]; Small intestine) of 0.68 ± 0.23 %ID/g. It also gave a tissue uptake at 1 h ([1]; Small intestine) of 0.52 ± 0.17 %ID/g, a tissue uptake at 2 h ([1]; Small intestine) of 0.16 ± 0.02 %ID/g and a tissue uptake at 2 min ([1]; Stomach) of 0.34 ± 0.11 %ID/g. It also gave a tissue uptake at 0.25 h ([1]; Stomach) of 0.49 ± 0.36 %ID/g, a tissue uptake at 2 h ([1]; Stomach) of 0.13 ± 0.04 %ID/g and a tissue uptake at 2 min ([1]; Thymus) of 15.7 ± 5.42 %ID/g. For the same compound, the tissue uptake at 0.25 h ([1]; Thymus) was 2.38 ± 0.7 %ID/g, the tissue uptake at 1 h ([1]; Thymus) was 0.71 ± 0.3 %ID/g and the tissue uptake at 2 h ([1]; Thymus) was 0.67 ± 0.21 %ID/g. For the same compound, the tissue uptake at 3 h ([1]; Thymus) was 0.52 ± 0.23 %ID/g, the tissue uptake at 2 min ([1]; Tumor) was 0.72 ± 0.31 %ID/g and the tissue uptake at 0.25 h ([1]; Tumor) was 3.75 ± 0.86 %ID/g. The tissue uptake at 1 h ([1]; Tumor) was 3.72 ± 0.36 %ID/g, the tissue uptake at 2 h ([1]; Tumor) was 2.06 ± 0.49 %ID/g and the tissue uptake at 3 h ([1]; Tumor) was 1.39 ± 0.32 %ID/g. It also gave a tissue to tissue ratio at 2 min ([1]; Tumor/blood ratio) of 0.02 ± 0.01, a tissue to tissue ratio at 0.25 h ([1]; Tumor/blood ratio) of 1.41 ± 0.4 and a tissue to tissue ratio at 1 h ([1]; Tumor/blood ratio) of 4.6 ± 0.47. It also gave a tissue to tissue ratio at 2 h ([1]; Tumor/blood ratio) of 7.27 ± 0.76, a tissue to tissue ratio at 3 h ([1]; Tumor/blood ratio) of 4.58 ± 1.33 and a tissue to tissue ratio at 2 min ([1]; Tumor/muscle ratio) of 0.79 ± 0.45. It also gave a tissue to tissue ratio at 0.25 h ([1]; Tumor/muscle ratio) of 4.23 ± 0.94, a tissue to tissue ratio at 1 h ([1]; Tumor/muscle ratio) of 10.1 ± 2.19 and a tissue to tissue ratio at 2 h ([1]; Tumor/muscle ratio) of 11.3 ± 3.03. It also gave a tissue to tissue ratio at 3 h ([1]; Tumor/muscle ratio) of 8.2 ± 4.02, a tissue uptake at 2 min ([1]; male, Adrenals) of 4.81 ± 2.58 %ID/g and a tissue uptake at 0.25 h ([1]; male, Adrenals) of 2.6 ± 1.1 %ID/g. It also gave a tissue uptake at 1 h ([1]; male, Adrenals) of 4.45 ± 2.03 %ID/g, a tissue uptake at 3 h ([1]; male, Adrenals) of 3.8 ± 0.47 %ID/g and a tissue uptake at 2 min ([1]; male, Bladder) of 1.72 ± 0.24 %ID/g. For the same compound, the tissue uptake at 0.25 h ([1]; male, Bladder) was 24.1 ± 15.3 %ID/g, the tissue uptake at 1 h ([1]; male, Bladder) was 39.5 ± 21.3 %ID/g and the tissue uptake at 2 h ([1]; male, Bladder) was 22.6 ± 6.46 %ID/g. The tissue uptake at 3 h ([1]; male, Bladder) was 58 ± 24.8 %ID/g, the tissue uptake at 2 min ([1]; male, Brain) was 0.54 ± 0.15 %ID/g and the tissue uptake at 0.25 h ([1]; male, Brain) was 0.1 ± 0.02 %ID/g. For the same compound, the tissue uptake at 1 h ([1]; male, Brain) was 0.06 ± 0.01 %ID/g, the tissue uptake at 2 h ([1]; male, Brain) was 0.06 ± 0.02 %ID/g and the tissue uptake at 3 h ([1]; male, Brain) was 0.06 ± 0.02 %ID/g. The tissue uptake at 0.25 h ([1]; male, Kidney) was 20.4 ± 3.7 %ID/g, the tissue uptake at 1 h ([1]; male, Kidney) was 30.8 ± 4.37 %ID/g and the tissue uptake at 2 h ([1]; male, Kidney) was 17.3 ± 12.9 %ID/g. For the same compound, the tissue uptake at 2 min ([1]; male, Large intestine) was 0.25 ± 0.16 %ID/g, the tissue uptake at 0.25 h ([1]; male, Large intestine) was 0.41 ± 0.11 %ID/g and the tissue uptake at 3 h ([1]; male, Large intestine) was 0.18 ± 0.05 %ID/g. For the same compound, the tissue uptake at 2 min ([1]; male, Pancreas) was 2.39 ± 0.72 %ID/g, the tissue uptake at 0.25 h ([1]; male, Pancreas) was 2.5 ± 0.38 %ID/g and the tissue uptake at 1 h ([1]; male, Pancreas) was 0.93 ± 0.03 %ID/g. It also gave a tissue uptake at 2 h ([1]; male, Pancreas) of 0.3 ± 0.06 %ID/g, a tissue uptake at 3 h ([1]; male, Pancreas) of 0.42 ± 0.02 %ID/g and a tissue uptake at 2 min ([1]; male, Spleen) of 1.04 ± 0.23 %ID/g. The tissue uptake at 0.25 h ([1]; male, Spleen) was 4.32 ± 1.31 %ID/g, the tissue uptake at 1 h ([1]; male, Spleen) was 1.75 ± 0.21 %ID/g and the tissue uptake at 2 h ([1]; male, Spleen) was 0.84 ± 0.17 %ID/g. For the same compound, the tissue uptake at 3 h ([1]; male, Spleen) was 0.83 ± 0.07 %ID/g, the tissue uptake at 2 min ([1]; male, Testicles) was 0.79 ± 0.07 %ID/g and the tissue uptake at 0.25 h ([1]; male, Testicles) was 0.86 ± 0.12 %ID/g. For the same compound, the tissue uptake at 1 h ([1]; male, Testicles) was 0.74 ± 0.2 %ID/g, the tissue uptake at 2 h ([1]; male, Testicles) was 0.52 ± 0.17 %ID/g and the tissue uptake at 3 h ([1]; male, Testicles) was 0.93 ± 0.5 %ID/g. The “blood pool activity cleared” value [1] was “more than 90%” and the “[^68Ga]AJ647 uptake” value [2] was 3.0 ± 0.42 %IA.
